From patent US9131685B2, “Compositions comprising a strigolactone compound and a chito-oligosaccharide compound for enhanced plant growth and yield” (Bayer CropScience AG, priority 2009, dated 2015)

Tests used:
soybean = assay: Greenhouse experiments on soybean (seed treatment, root weight and leaf area); type: in vivo, soybean (variety Cordoba); details: sand/perlite with arbuscular mycorrhizal inoculum, 6 weeks greenhouse, average of 3 replicates of 5 plants
Procedure: Test is performed in the greenhouse. 5 soybean seeds per treatment of the variety Cordoba were sown in 500 ml rose pots (7×7×18 cm) containing a mix of sand and perlite (1:1). 3 replicates were made. The active ingredient was solved in a solvent and seed treatment was performed with a lab equipment.
To inoculate with arbuscular mycorrhizal fungi, 10 g inoculum (Vaminoc; MicroBio Ltd.) were mixed with 1 l of the sand-perlite mixture.
Seeds were covered by 3 cm of LECA (light expanded clay aggregate). Pots were incubated in the greenhouse for 6 weeks at 22° C./15° C. (day/night) and 80% relative humidity. Assessment consisted of root weight and leaf area.
average of 3 replicates of 5 plants

wheat seeds = assay: Germination test on wheat (agar plates, climate chamber); type: in vivo, wheat (variety Tuareg); details: seed treatment, 10° C. in darkness, after 2 days, average of 5 replicates of 20 seeds
Procedure: For wheat experiments 20 wheat seeds per treatment of the variety Tuareg were sown on agar plates (1.4% agar). 5 replicates were made. The active ingredient was solved in a solvent and seed treatment was performed with a lab equipment. Plates were incubated at 10° C. in darkness. After 2 days the germination rate and root length were assessed.
(§1) average of 5 replicates of 20 seeds

soybean seeds = assay: Germination test on soybean (agar plates, climate chamber); type: in vivo, soybean (variety Cordoba); details: seed treatment, 10° C. in darkness, after 4 days, average of 5 replicates of 20 seeds
Procedure: Test is performed in a climate chamber. 20 soybean seeds per treatment of the variety Cordoba were sown on agar plates (0.8% agar). 5 replicates were made. The active ingredient was solved in a solvent and seed treatment was performed with a lab equipment. Plates were incubated at 10° C. in darkness. After 4 days the germination rate and root length were assessed.
as §1

Winter wheat = assay: Field trials 2: winter wheat, Germany (Bergisches Land); type: in vivo, Winter wheat (variety Dekan); details: in comparison to the untreated control
Procedure: b) Field trials 2: Winter wheat: Germany (Bergisches Land):
Seeds of the variety “Dekan” were planted on December with a seed density of 400 seeds/m^2 on a non-fertilized soil. The plot size was 6 m×2.5 m (=15 m^2) and four randomised replicates were used. The application of plant protection products were carried out according to the good agricultural practise. The evaluation of different growth parameters was done during the season.
Dosages Winter Wheat (Bergisches Land):
Base: Insecticide (I): Imidacloprid; Fungicides (F): Fluoxastrobin & Tebuconazole & Prothioconazole.

Row | SMILES | Leaf Area (soybean) [cm^2] | Root weight (soybean) [g] | Germination rate (wheat seeds) [%] | Root length (wheat seeds) [cm] | Germination rate (soybean seeds) [%] | Root length (soybean seeds) [cm] | yield in dt/ha, in words (Winter wheat)
1 | CC1=CC(O/C=C2/C(=O)OC3c4ccccc4CC23)OC1=O (stereo not shown) [Compound A1] | 35.67 | 11.13 | 27 | 3.04 | 63 | 5.19 | 
2 | CCCCCC/C=C\CCCOc1cccc(C(=O)NC2C(O[C@@H]3C(CO)OC(OC4C(CO)O[C@@H](O[C@@H]5C(CO)OC(OC6C(CO)OC(O)C(NC(C)=O)C6O)C(NC(C)=O)C5O)C(NC(C)=O)C4O)C(NC(C)=O)C3O)OC(CO)[C@@H](O)C2O)c1 (stereo partly shown) [Compound B1] | 36.82 | 9.19 | 8 | 2.34 | 58 | 5.64 | increased yield
3 | CCCCCC/C=C\CCCOc1cccc(C(=O)NC2C(O)[C@H](O)C(CO)O[C@H]2O[C@@H]2C(CO)O[C@@H](O[C@@H]3C(CO)O[C@@H](O[C@@H]4C(CO)O[C@@H](O[C@@H]5C(CO[C@@H]6OC(C)[C@@H](O)C(O)C6O)OC(O)C(NC(C)=O)C5O)C(NC(C)=O)C4O)C(NC(C)=O)C3O)C(NC(C)=O)C2O)c1 (stereo partly shown) [Compound B2] |  |  | 18 | 2.02 | 68 | 5.61 | 
4 | CCCCCC/C=C\CCCOc1cccc(C(=O)NC2C(O[C@@H]3C(CO)OC(OC4C(CO)O[C@@H](O[C@@H]5C(CO)OC(OC6C(CO[C@@H]7OC(C)C(O)C(O)C7OC)OC(O)C(NC(C)=O)C6O)C(NC(C)=O)C5O)C(NC(C)=O)C4O)C(NC(C)=O)C3O)OC(CO)[C@@H](O)C2O)c1 (stereo partly shown) [Compound B3] |  |  | 17 | 2.18 | 59 | 5.13 | 
5 | OC(Cc1ccccc1Cl)(Cn1nc[nH]c1=S)C1(Cl)CC1 (stereo not shown) [Prothioconazole, reference compound] | 20.58 | 16.8 |  |  |  |  | 
6 | CON=C(C(=O)OC)c1ccccc1CON=C(C)c1cccc(C(F)(F)F)c1 [Trifloxystrobin, reference compound] | 24.80 | 18.2 |  |  |  |  | 
